Counter-ions that a name gives are not always drawn.
Columns and labels:
T-47D cells = experiment: Caspase cascade activation (N-(Ac-DEVD)-N'-ethoxycarbonyl-R110 fluorogenic substrate) in T-47D cells; format: cell-based, Human; details: 48 h incubation; for EC50: Homo sapiens, T47D, caspase activation potency, read-out: T47 EC50; for T47 Ratio 48 hr: caspase activity: ratio of net RFU of test compound to control
How it was run: (§1)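 EC50 comes from sigmoidal fitting of the net RFU ratio over DMSO control, read at ex 485/em 530 nm 3 h after adding 14 μM Ac-DEVD-R110 in lysolecithin/DTT/PIPES pH 7.2 buffer. Compound (0.016-10 μM final) was applied to cells for 48 h at 37 °C beforehand.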

ZR-75-1 cells = experiment: Caspase cascade activation (N-(Ac-DEVD)-N'-ethoxycarbonyl-R110 fluorogenic substrate) in ZR-75-1 cells; format: cell-based, Human; details: ZR-75-1, 48 h incubation; for EC50: Homo sapiens, caspase activation potency; for ZR Ratio 48 hr: caspase activity: ratio of net RFU of test compound to control
How it was run: as §1

SMILES	EC50 (T-47D cells)	EC50 (ZR-75-1 cells)	T47 Ratio 48 hr (T-47D cells)	ZR Ratio 48 hr (ZR-75-1 cells)
COc1cc(Nc2cc(C(F)(F)F)nc(-c3cccnc3)n2)cc(OC)c1.Cl [Example 122, 4-(3,5-Dimethoxyanilino)-2-(3-pyridinyl)-6-(trifluoromethyl)pyrimidine hydrochloride]	44 nM	192 nM	11.1	10.1
Cc1ccc(Cl)c(Nc2cc(C(F)(F)F)nc(-c3cccnc3)n2)c1 [Example 123, 4-(2-Chloro-5-methylanilino)-2-(3-pyridinyl)-6-(trifluoromethyl)pyrimidine]	763 nM	725 nM	21.2	15.8
COc1cc(Nc2cc(C(F)(F)F)nc(-c3cccnc3)n2)cc(C(F)(F)F)c1 [Example 124, 4-(3-Methoxy-5-trifluoromethylanilino)-2-(3-pyridinyl)-6-(trifluoromethyl)pyrimidine]	720 nM	688 nM	19.9	16.3
Cc1cc(Nc2cc(C(F)(F)F)nc(-c3cccnc3)n2)cc(C(F)(F)F)c1 [Example 128, 4-[3-Methyl-5-(trifluoromethyl)anilino]-2-(3-pyridinyl)-6-(trifluoromethyl)pyrimidine]	> 5000 nM	> 5000 nM	1.4	1.5
COc1ccc(Cl)c(Nc2cc(C)nc(N3CCOCC3)n2)c1 [Example 131, 4-(6-Chloro-3-methoxyanilino)-2-morpholino-6-(methyl)pyrimidine]	> 5000 nM	> 5000 nM	1.2	1.2
COc1cc(Nc2cc(C(F)(F)F)nc(-c3cccnc3)n2)c(C(C)=O)cc1OC [Example 134, 4-(2-Acetyl-4,5-dimethoxyanilino)-2-(3-pyridinyl)-6-(trifluoromethyl)pyrimidine]	807 nM	> 5000 nM	16.5	1.5
Cc1cc(Nc2cc(C(F)(F)F)nc(-c3cnccn3)n2)c(C)cc1O.Cl [Example 148, 4-(2,5-Dimethyl-4-hydroxyanilino)-(2-pyrazinyl)-6-(trifluoromethyl)pyrimidine hydrochloride]	412 nM	243 nM	13.8	8.4
COc1cc(Nc2cc(C(F)(F)F)nc(-c3ccccn3)n2)c(OC)cc1Cl.Cl [Example 150, 4-(4-Chloro-2,5-dimethoxyanilino)-2-(2-pyridinyl)-6-(trifluoromethyl)pyrimidine hydrochloride]	135 nM	133 nM	11.0	9.7
COc1cc(C)c(Nc2cc(C(F)(F)F)nc(-c3ccccn3)n2)cc1OC.Cl [Example 152, 4-(4,5-Dimethoxy-2-methylanilino)-2-(2-pyridinyl)-6-(trifluoromethyl)pyrimidine hydrochloride]	35 nM	212 nM	14.6	8.6
COc1cc(C)c(Nc2cc(C(F)(F)F)nc(-c3cnccn3)n2)cc1OC.Cl [Example 153, 4-(4,5-Dimethoxy-2-methylanilino)-2-(2-pyrazinyl)-6-(trifluoromethyl)pyrimidine hydrochloride]	43 nM	146 nM	15.7	9.3
COc1cc(C)c(Nc2cc(C(F)(F)F)nc(-c3ccncc3)n2)cc1OC.Cl [Example 154, 4-(4,5-Dimethoxy-2-methylanilino)-2-(4-pyridinyl)-6-(trifluoromethyl)pyrimidine hydrochloride]	22 nM	14 nM	6.1	7.9
COc1cc(C)c(Nc2cc(C(F)(F)F)nc(-c3cccnc3)n2)cc1OC [Example 157, 4-(4,5-Dimethoxy-2-methylanilino)-2-(3-pyridinyl)-6-(trifluoromethyl)pyrimidine]	43 nM	197 nM	6.6	6.4
COc1cccc(N(C)c2cc(C(F)(F)F)nc(-c3ccccn3)n2)c1 [Example 160, 4-(N-Methyl-3-methoxyanilino)-2-(2-pyridinyl)-6-trifluoromethyl-pyrimidine]	> 5000 nM	> 5000 nM	1.0	1.4

Further lines, with some results ahead:

EC50 (T-47D cells)	EC50 (ZR-75-1 cells)	SMILES	T47 Ratio 48 hr (T-47D cells)	ZR Ratio 48 hr (ZR-75-1 cells)
3470 nM	2240 nM	COc1ccc(Cl)c(Nc2cc(C(F)(F)F)nc(-c3ccc(C(F)(F)F)nc3)n2)c1 [Example 125, 4-(2-Chloro-5-methoxyanilino)-2-[6-(trifluoromethyl)-3-pyridinyl]-6-(trifluoromethyl)pyrimidine]	4.4	8.1
222 nM	353 nM	COc1ccc(Br)cc1Nc1cc(C(F)(F)F)nc(-c2cccnc2)n1 [Example 126, 4-(5-Bromo-2-methoxyanilino)-2-(3-pyridinyl)-6-(trifluoromethyl)pyrimidine]	12.0	5.9
279 nM	550 nM	COc1ccc(Br)c(Nc2cc(C(F)(F)F)nc(-c3cccnc3)n2)c1 [Example 127, 4-(2-Bromo-5-methoxyanilino)-2-(3-pyridinyl)-6-(trifluoromethyl)pyrimidine]	10.3	5.3
295 nM	167 nM	COc1cc(Nc2cc(C(F)(F)F)nc(-c3cccnc3)n2)c(OC)cc1Cl [Example 130, 4-(4-Chloro-2,5-dimethoxyanilino)-2-(3-pyridinyl)-6-(trifluoromethyl)pyrimidine hydrochloride]	11.3	9.7
335 nM	204 nM	Cc1cc(Nc2cc(C(F)(F)F)nc(-c3ccccn3)n2)c(C)cc1O.Cl [Example 147, 4-(2,5-Dimethyl-4-hydroxyanilino)-2-(2-pyridinyl)-6-(trifluoromethyl)pyrimidine hydrochloride]	13.3	8.4
75 nM	46 nM	Cc1cc(Nc2cc(C(F)(F)F)nc(-c3ccncc3)n2)c(C)cc1O [Example 149, 4-(2,5-Dimethyl-4-hydroxyanilino)-2-(4-pyridinyl)-6-(trifluoromethyl)pyrimidine]	16.0	10.0
388 nM	276 nM	COc1cc(Nc2cc(C(F)(F)F)nc(-c3cnccn3)n2)c(OC)cc1Cl.Cl [Example 151, 4-(4-Chloro-2,5-dimethoxyanilino)-(2-pyrazinyl)-6-(trifluoromethyl)pyrimidine hydrochloride]	12.0	8.6
> 5000 nM	2260 nM	Cl.FC(F)(F)Oc1cccc(Nc2cc(C(F)(F)F)nc(-c3ccccn3)n2)c1 [Example 156, 4-(3-Trifluoromethoxyanilino)-2-(2-pyridinyl)-6-(trifluoromethyl)pyrimidine hydrochloride]	1.7	4.1
509 nM	133 nM	COc1cc(Nc2cc(C(F)(F)F)nc(-c3ccncc3)n2)c(OC)cc1Cl.Cl [Example 158, 4-(4-Chloro-2,5-dimethoxyanilino)-2-(4-pyridinyl)-6-(trifluoromethyl)pyrimidine hydrochloride]	9.5	6.0

Reference: patent US6716851B2, “Substituted 2-aryl-4-arylaminopyrimidines and analogs as activators or caspases and inducers of apoptosis and the use thereof” (Cytovia, Inc., priority 2000, dated 2004)
